Columns and labels:
[1] = target: GDP-bound KRAS wild-type protein (Homo sapiens, UniProt P01116); experiment: Binding to KRAS by surface plasmon resonance (SPR), dissociation constant KD; conditions: Single Cycle Kinetics
In short: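 Read-out is KD from 1:1 fitting of single-cycle kinetics sensorgrams, blank-cycle and reference-surface corrected. Proteins were GDP-loaded, biotinylated Avi-fusions freshly captured each cycle at roughly 100–300 RU. Runs were at 30°C in HBS pH 7.4 with MgCl2, GDP and 4% DMSO.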

[2] = target: GDP-bound NRAS wild-type protein (Homo sapiens, UniProt P01111); experiment: Binding to NRAS by surface plasmon resonance (SPR), KD and KD ratio to KRAS; conditions: ratio of KD for GDP-bound NRAS wild-type protein to KD for KRAS
In short: (§1)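 Affinity is measured by surface plasmon resonance at 30°C against captured, GDP-loaded RAS carrying a biotinylated Avi tag. Compounds are titrated by single-cycle kinetics, and KD comes from a 1:1 fit.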

[3] = target: HRAS wild-type protein (Homo sapiens, UniProt P01112); experiment: Binding to HRAS by surface plasmon resonance (SPR), KD and KD ratio to KRAS; conditions: ratio of KD for HRAS wild-type protein to KD for KRAS
In short: as §1

[4] = test system: human lung cancer strain NCI-H441; experiment: NCI-H441 cell proliferation inhibitory activity (CellTiter-Glo, 4 days); type: cell-based; conditions: NCI-H441 cells, 4 days, read-out: NCl-H441 IC50
In short: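 Readout: […] after the ATP-based reagent. Compound: serial dilutions in dimethyl sulfoxide.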

Chain of GDP-bound KRAS wild-type protein (P01116 1-188 isoform P01116-2): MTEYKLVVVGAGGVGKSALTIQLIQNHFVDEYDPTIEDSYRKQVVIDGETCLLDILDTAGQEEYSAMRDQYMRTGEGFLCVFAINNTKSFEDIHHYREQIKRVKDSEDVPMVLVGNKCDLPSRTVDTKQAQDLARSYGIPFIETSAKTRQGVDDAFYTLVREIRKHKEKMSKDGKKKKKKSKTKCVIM
Chain of GDP-bound NRAS wild-type protein (P01111 whole entry): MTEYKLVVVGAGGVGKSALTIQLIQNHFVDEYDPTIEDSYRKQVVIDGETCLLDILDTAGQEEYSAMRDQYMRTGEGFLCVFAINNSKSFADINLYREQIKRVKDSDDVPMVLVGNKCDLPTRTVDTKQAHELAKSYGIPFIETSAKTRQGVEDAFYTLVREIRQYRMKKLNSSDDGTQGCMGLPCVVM
Chain of HRAS wild-type protein (P01112 whole entry): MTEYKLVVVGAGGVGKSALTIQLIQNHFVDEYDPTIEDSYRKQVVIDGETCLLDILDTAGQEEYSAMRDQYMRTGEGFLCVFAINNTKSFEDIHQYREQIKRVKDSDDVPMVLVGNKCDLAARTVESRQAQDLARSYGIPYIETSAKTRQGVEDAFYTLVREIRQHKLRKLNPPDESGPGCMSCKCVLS

SMILES	Kd [1] [nM]	IC50 [4] [nM]	NRAS /KRAS [2]	HRAS /KRAS [3]
CCO[C@@H]1C[C@H]2C(=O)OC3(CCC3)C(=O)N(C)[C@@H](C3CCCC3)C(=O)N(C)[C@H](C(=O)N(C)C)CC(=O)N(C)[C@@H]([C@H](C)OC)C(=O)N[C@@H]([C@@H](C)CC)C(=O)N3CCC[C@H]3C(=O)N(C)[C@H]3C/C=C\CCN(C3=O)[C@@H](Cc3ccc(C)cc3)C(=O)N(C)CC(=O)N[C@@H](CCc3ccc(C(F)(F)F)c(OC)c3)C(=O)N2C1 [PP3395]	0.82	11	A (a compound having 10 or more and less than 20 is denoted as A)	B (a compound having 3 or more and less than 10 is denoted as B)
CCO[C@@H]1C[C@H]2C(=O)OC3(CCC3)C(=O)N(C)[C@@H](C3CCCC3)C(=O)N(C)[C@H](C(=O)N(C)C)CC(=O)N(C)[C@@H]([C@H](C)OC)C(=O)N[C@@H]([C@@H](C)CC)C(=O)N(C3CC3)CC(=O)N(C)[C@H]3C/C=C\CCN(C3=O)[C@@H](Cc3ccc(C)cc3)C(=O)N(C)CC(=O)N[C@@H](CCc3ccc(C(F)(F)F)c(OC)c3)C(=O)N2C1 [PP3396]	1.4	12.9	A (a compound having 10 or more and less than 20 is denoted as A)	B (a compound having 3 or more and less than 10 is denoted as B)
CCCO[C@@H]1C[C@H]2C(=O)NC3(CC(C)(C)C3)C(=O)N(C)[C@@H](C3CCCC3)C(=O)N(C)[C@H](C(=O)N(C)CC)CC(=O)N(C)[C@@H](COCC)C(=O)N[C@@H]([C@@H](C)CC)C(=O)N(C3CC3)CC(=O)N(C)[C@H]3C/C=C\CCN(C3=O)[C@@H](Cc3ccc(C(F)(F)F)cc3)C(=O)N(C)CC(=O)N[C@@H](CCc3ccc(C(F)(F)F)c(Cl)c3)C(=O)N2C1 [PP3403]	0.81	15.2	A (a compound having 10 or more and less than 20 is denoted as A)	A (a compound having 10 or more and less than 20 is denoted as A)
CCCO[C@@H]1C[C@H]2C(=O)NC3(CC(C)(C)C3)C(=O)N(C)[C@@H](C3CCCC3)C(=O)N(C)[C@H](C(=O)N(C)CC)CC(=O)N(C)[C@@H](COCC)C(=O)N[C@@H]([C@@H](C)CC)C(=O)N3CCC[C@H]3C(=O)N(C)[C@H]3C/C=C\CCN(C3=O)[C@@H](Cc3ccc(C(F)(F)F)cc3)C(=O)N(C)CC(=O)N[C@@H](CCc3ccc(C(F)(F)F)c(Cl)c3)C(=O)N2C1 [PP3405]	1.5	40.5	A (a compound having 10 or more and less than 20 is denoted as A)	A (a compound having 10 or more and less than 20 is denoted as A)
CCCO[C@@H]1C[C@H]2C(=O)NC3(CC(C)(C)C3)C(=O)N(C)[C@@H](C3CCCC3)C(=O)N(C)[C@H](C(=O)N(C)CC)CC(=O)N(C)[C@@H](COCC)C(=O)N[C@@H]([C@@H](C)CC)C(=O)N3C[C@@H](C)C[C@H]3C(=O)N(C)[C@H]3C/C=C\CCN(C3=O)[C@@H](Cc3ccc(C(F)(F)F)cc3)C(=O)N(C)CC(=O)N[C@@H](CCc3ccc(C(F)(F)F)c(Cl)c3)C(=O)N2C1 [PP3407]	3.8	73.8	A (a compound having 10 or more and less than 20 is denoted as A)	A (a compound having 10 or more and less than 20 is denoted as A)
CCCO[C@@H]1C[C@H]2C(=O)NC3(CC(C)(C)C3)C(=O)N(C)[C@@H](C3CCCC3)C(=O)N(C)[C@H](C(=O)N(C)CC)CC(=O)N(C)[C@@H](COCC)C(=O)N[C@@H]([C@@H](C)CC)C(=O)N(C3CC3)CC(=O)N(C)[C@H]3C/C=C\CCN(C3=O)[C@@H](Cc3ccc(C(F)(F)F)cc3)C(=O)N(C)CC(=O)N[C@@H](CCc3ccc(C(F)(F)F)c(OC)c3)C(=O)N2C1 [PP3411]	0.72	25.8	A (a compound having 10 or more and less than 20 is denoted as A)	A (a compound having 10 or more and less than 20 is denoted as A)

These reach a lower Kd [1]. Values come first.

Kd [1] [nM]	IC50 [4] [nM]	SMILES	NRAS /KRAS [2]	HRAS /KRAS [3]
0.28	4.3	CCO[C@@H]1C[C@H]2C(=O)OC3(CCC3)C(=O)N(C)[C@@H](C3CCCC3)C(=O)N(C)[C@H](C(=O)N(C)C)CC(=O)N(C)[C@@H]([C@H](C)OC)C(=O)N[C@@H]([C@@H](C)CC)C(=O)N(C)CC(=O)N(C)[C@H]3C/C=C\CCN(C3=O)[C@@H](Cc3ccc(C)cc3)C(=O)N(C)CC(=O)N[C@@H](CCc3ccc(C(F)(F)F)c(OC)c3)C(=O)N2C1 [PP3397]	A (a compound having 10 or more and less than 20 is denoted as A)	B (a compound having 3 or more and less than 10 is denoted as B)
0.32	10.9	CCCO[C@@H]1C[C@H]2C(=O)NC3(CC(C)(C)C3)C(=O)N(C)[C@@H](C3CCCC3)C(=O)N(C)[C@H](C(=O)N(C)CC)CC(=O)N(C)[C@@H](COCC)C(=O)N[C@@H]([C@@H](C)CC)C(=O)N3C[C@@H](F)C[C@H]3C(=O)N(C)[C@H]3C/C=C\CCN(C3=O)[C@@H](Cc3ccc(C(F)(F)F)cc3)C(=O)N(C)CC(=O)N[C@@H](CCc3cc(F)c(C(F)(F)F)c(F)c3)C(=O)N2C1 [PP3401]	A (a compound having 10 or more and less than 20 is denoted as A)	A (a compound having 10 or more and less than 20 is denoted as A)
0.31	10.1	CCC[C@H]1C(=O)N[C@@H]([C@@H](C)CC)C(=O)N(C)CC(=O)N(C)[C@H]2C/C=C\CCN(C2=O)[C@@H](Cc2ccc(C(F)(F)F)cc2)C(=O)N(C)CC(=O)N[C@@H](CCc2cc(F)c(C(F)(F)F)c(F)c2)C(=O)N2CC3(CC3)C[C@H]2C(=O)NC2(CCC2)C(=O)N(C)[C@@H](C(CC)CC)C(=O)N(C)[C@H](C(=O)N(C)C)CC(=O)N1C [PP3402]	AA (a compound having 20 or more is denoted as AA)	B (a compound having 3 or more and less than 10 is denoted as B)
0.2	12.8	CCC[C@H]1C(=O)N[C@@H]([C@@H](C)CC)C(=O)N(C)CC(=O)N(C)[C@H]2C/C=C\CCN(C2=O)[C@@H](Cc2ccc(C(F)(F)F)cc2)C(=O)N(C)CC(=O)N[C@@H](CCc2cc(F)c(C(F)(F)F)c(F)c2)C(=O)N2CC3(CC3)C[C@H]2C(=O)NC2(CCC2)C(=O)N(C)[C@@H]([C@@H](C)CC)C(=O)N(C)[C@H](C(=O)N(C)C)CC(=O)N1C [PP3404]	AA (a compound having 20 or more is denoted as AA)	A (a compound having 10 or more and less than 20 is denoted as A)
0.035	5.7	CCC[C@H]1C(=O)N[C@@H]([C@@H](C)CC)C(=O)N(C)CC(=O)N(C)[C@H]2C/C=C\CCN(C2=O)[C@@H](Cc2ccc(C(F)(F)F)cc2)C(=O)N(C)CC(=O)N[C@@H](CCc2cc(F)c(C(F)(F)F)c(F)c2)C(=O)N2CC3(CC3)C[C@H]2C(=O)NC2(CCC2)C(=O)N(C)[C@@H](CC(C)(C)C)C(=O)N(C)[C@H](C(=O)N(C)C)CC(=O)N1C [PP3406]	A (a compound having 10 or more and less than 20 is denoted as A)	B (a compound having 3 or more and less than 10 is denoted as B)
0.32	12.8	CCC[C@H]1C(=O)N[C@@H]([C@@H](C)CC)C(=O)N(C)CC(=O)N(C)[C@H]2C/C=C\CCN(C2=O)[C@@H](Cc2ccc(C(F)(F)F)cc2)C(=O)N(C)CC(=O)N[C@@H](CCc2ccc(C(F)(F)F)c(OC)c2)C(=O)N2CC3(CC3)C[C@H]2C(=O)NC2(CCC2)C(=O)N(C)[C@@H](C(CC)CC)C(=O)N(C)[C@H](C(=O)N(C)C)CC(=O)N1C [PP3408]	AA (a compound having 20 or more is denoted as AA)	A (a compound having 10 or more and less than 20 is denoted as A)
0.55	21	CCCO[C@@H]1C[C@H]2C(=O)NC3(CC(C)(C)C3)C(=O)N(C)[C@@H](C3CCCC3)C(=O)N(C)[C@H](C(=O)N(C)CC)CC(=O)N(C)[C@@H](COCC)C(=O)N[C@@H]([C@@H](C)CC)C(=O)N3C[C@@H](F)C[C@H]3C(=O)N(C)[C@H]3C/C=C\CCN(C3=O)[C@@H](Cc3ccc(C(F)(F)F)cc3)C(=O)N(C)CC(=O)N[C@@H](CCc3ccc(C(F)(F)F)c(Cl)c3)C(=O)N2C1 [PP3409]	A (a compound having 10 or more and less than 20 is denoted as A)	A (a compound having 10 or more and less than 20 is denoted as A)
0.24	15.6	CCC[C@H]1C(=O)N[C@@H]([C@@H](C)CC)C(=O)N(C)CC(=O)N(C)[C@H]2C/C=C\CCN(C2=O)[C@@H](Cc2ccc(C(F)(F)F)cc2)C(=O)N(C)CC(=O)N[C@@H](CCc2ccc(C(F)(F)F)c(OC)c2)C(=O)N2CC3(CC3)C[C@H]2C(=O)NC2(CCC2)C(=O)N(C)[C@@H]([C@@H](C)CC)C(=O)N(C)[C@H](C(=O)N(C)C)CC(=O)N1C [PP3410]	AA (a compound having 20 or more is denoted as AA)	A (a compound having 10 or more and less than 20 is denoted as A)
0.037	4.3	CCC[C@H]1C(=O)N[C@@H]([C@@H](C)CC)C(=O)N(C)CC(=O)N(C)[C@H]2C/C=C\CCN(C2=O)[C@@H](Cc2ccc(C(F)(F)F)cc2)C(=O)N(C)CC(=O)N[C@@H](CCc2ccc(C(F)(F)F)c(OC)c2)C(=O)N2CC3(CC3)C[C@H]2C(=O)NC2(CCC2)C(=O)N(C)[C@@H](CC(C)(C)C)C(=O)N(C)[C@H](C(=O)N(C)C)CC(=O)N1C [PP3412]	A (a compound having 10 or more and less than 20 is denoted as A)	B (a compound having 3 or more and less than 10 is denoted as B)
